Test system: Z. mobilis strain 8b
Conditions: fermentation medium pH 6.0, 30° C., 150 rpm; supplemented with 6 g/L acetamide or 7.2 g/L acetic acid vs unsupplemented control; FIG. 1
Excerpt: Fermentation medium was composed of 10 g/L yeast extract, 2 g/L KH2PO4, 70 g/L glucose, 40 g/L xylose and 0.1 M MES buffer.

Row | Structure (SMILES) | growth rate of Z. mobilis | final density / cell yield (as measured by dry cell mass) of Z. mobilis
1 | CC(=O)O [acetic acid] | reduced growth rate | 
2 | CC(N)=O [acetamide] | no influence | no influence

Source: patent US7781191B2, “Treatment of biomass to obtain a target chemical” (E. I. du Pont de Nemours and Company, priority 2005, dated 2010)
